By Ki is commonly meant a measure of affinity in units of concentration, obtained from inhibition or displacement. The low end stands for a stronger hold on the target, the high end for a looser hold on the target.

The target of the first assay is T1, α2D-adrenoceptors (Rattus norvegicus, UniProt P22909).
T1 construct: Frontal cortical tissue from the brains of male Charles River CD rats; from tissue; host or cells: rat frontal cortex membranes
T1 sequence (P22909 1-465): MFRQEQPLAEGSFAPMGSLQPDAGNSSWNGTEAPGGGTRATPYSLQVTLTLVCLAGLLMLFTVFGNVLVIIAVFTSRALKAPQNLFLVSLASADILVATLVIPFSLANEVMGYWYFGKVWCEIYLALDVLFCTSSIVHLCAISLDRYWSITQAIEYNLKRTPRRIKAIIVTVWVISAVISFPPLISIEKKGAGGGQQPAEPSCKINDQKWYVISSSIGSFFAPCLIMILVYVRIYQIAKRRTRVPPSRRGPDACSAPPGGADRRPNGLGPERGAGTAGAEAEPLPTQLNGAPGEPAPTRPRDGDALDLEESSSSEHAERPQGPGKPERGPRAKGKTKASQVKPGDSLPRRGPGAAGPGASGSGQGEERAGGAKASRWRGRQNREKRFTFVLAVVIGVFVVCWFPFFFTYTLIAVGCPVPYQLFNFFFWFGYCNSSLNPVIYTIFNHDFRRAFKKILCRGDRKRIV
The experiment in a line: inhibition of tritiated idazoxan binding to α2D-adrenoceptors in rat frontal cortical tissue. As to conditions: at 10^-6 M; rat frontal cortex, tritiated idazoxan; read-out: % displacement of radio ligand, α2D. Here is the method: Frontal cortical tissue from the brains of male Charles River CD rats weighing between 150-250 g were homogenised in ice-cold 0.25 M sucrose (1:30 w/v) and centrifuged at 1,000 g at 4° C. for 12 minutes. The supernatant was stored on ice and the pellet was rehomogenised in 0.25 M sucrose (1:15 w/v) and centrifuged at 850 g at 4° C. for 12 minutes. Combined supernatants were diluted with 5 mM Tris-HCl (pH 7.5) containing 5 mM ethylenediamine tetraacetic acid (EDTA) readjusted to pH 7.5 (at 25° C.) with 1 M sodium hydroxide to 1:80 w/v, and centrifuged at 30,000 g at 4° C. for 10 minutes. The resulting pellet was resuspended in 50 mM Tris-HCl (pH 7.5) containing 5.68 mM L-ascorbic acid and 0.5 mM EDTA readjusted to pH 7.5 (at 25° C.) with 1 M sodium hydroxide, and centrifuged at 30,000 g for 10 minutes. The final pellet was resuspended in 50 mM Tris-HCl (pH 7.5) containing 5.68 mM L-ascorbic acid and 5 mM EDTA (equivalent to 12.5 mg wet weight of tissue/ml) and used immediately in the binding assay. Aliquots (400 μl; equivalent to 5 mg wet weight of tissue/tube) of this suspension were added to tubes containing the ligand (50 μl; 1 nM) and distilled water (50 μl; total binding) or phentolamine (50 μl; 5 μM; non-specificbinding) or test compound (50 μl; at a single concentration of 10^-6 M or at 10 concentrations ranging from 10^-11 -10^-3 M). The ligand was tritiated idazoxan ((1,4-[6,7(n)-^3 H]benzodioxan-2-yl)-2-imidazoline hydrochloride) and the mixture was incubated at 0° C. for 75 minutes before the incubation was terminated by rapid filtration.
The filters were washed with ice-cold Tris-HCl buffer and dried. The filters were punched out into vials, scintillation fluid added and radioactivity determined by liquid scintillation counting. […] Displacement curves were then produced for those compounds which displaced ≥50% of specific binding of the tritiated ligand at 10^-6 M using a range of concentrations of the compound. The concentration which gave 50% inhibition of specific binding (IC50) was obtained from the curve. The inhibition coefficient Ki was then calculated using the formula [formula] in which [ligand] is the concentration of the tritiated ligand used and KD is the equilibrium dissociation constant for the ligand.
`Nc1ccsc1C(=O)NCC1CCN(CC2COc3ccccc3O2)CC1` (stereo not drawn) [Example 16, 3-amino-N-{[1-(1,4-benzodioxan-2-ylmethyl)-4-piperidyl]methyl}thiophene-2-carboxamide]: the inhibition at 1 µM stood at 99%.

For `O=C(NCC1CCN(C[C@H]2COc3ccc(Cl)cc3O2)CC1)c1cccc2cccnc12` [Example 23, (S)-N-{[1-(7-chloro-1,4-benzodioxan-2-ylmethyl)-4-piperidyl]methyl}quinoline-8-carboxamide], the inhibition at 1 µM worked out at 95%. With `Nc1ncccc1C(=O)NCC1CCN(C[C@H]2COc3cccc(C(F)(F)F)c3O2)CC1` [Example 20, (S)-2-amino-N-{[1-(8-trifluoromethyl-1,4-benzodioxan-2-ylmethyl)-4-piperidyl]methyl}pyridine-3-carboxamide], the inhibition at 1 µM is 98%. On to `O=C(NCC1CCN(CC2COc3ccccc3O2)CC1)c1cccc2cccnc12` (stereo not drawn) [Example 8, N-{[1-(1,4-benzodioxan-2-ylmethyl)-4-piperidyl]methyl}quinoline-8-carboxamide], for which the inhibition at 1 µM came to 100%.

Regarding `COc1cccc2c1OC(CN1CCC(CNC(=O)c3cccnc3N)CC1)CO2` (stereo not drawn) [Example 11, 2-amino-N-{[1-(8-methoxy-1,4-benzodioxan-2-ylmethyl)-4-piperidyl]methyl}pyridine-3-carboxamide], the inhibition at 1 µM is 98%.

Regarding `O=C(NCC1CCN(C[C@H]2COc3ccc(Cl)cc3O2)CC1)c1ccccn1` [Example 12, (S)-N-{[1-(7-chloro-1,4-benzodioxan-2-ylmethyl)-4-piperidyl]methyl}pyridine-2-carboxamide], the inhibition at 1 µM came to 95%. Still for that read-out and setting: as for `Nc1ncccc1C(=O)NCC1CCN(C[C@H]2COc3cccc(Cl)c3O2)CC1` [Example 2, (S)-2-amino-N-{[1-(8-chloro-1,4-benzodioxan-2-ylmethyl)-4-piperidyl]methyl}-pyridine-3-carboxamide], the figure is 98%; as for `Nc1ncccc1C(=O)NCC1CCN(CC2COc3ccccc3O2)CC1` (stereo not drawn) [Example 4, 2-amino-N-{[1-(1,4-benzodioxan-2-ylmethyl)-4-piperidyl]methyl}pyridine-3-carboxamide], 98%. As to `Cc1ccc(C(=O)NCC2CCN(C[C@H]3COc4ccc(Cl)cc4O3)CC2)c(N)n1` [Example 14, (S)-2-amino-N-{[1-(7-chloro-1,4-benzodioxan-2-ylmethyl)-4-piperidyl]methyl}-6-methylpyridine-3-carboxamide], the inhibition at 1 µM worked out at 97%. Still for that read-out and setting: in the case of `Cc1cccc2c1O[C@@H](CN1CCC(CNC(=O)c3cccnc3N)CC1)CO2` [Example 13, (S)-2-amino-N-{[1-(8-methyl-1,4-benzodioxan-2-ylmethyl)-4-piperidyl]methyl}pyridine-3-carboxamide] it was 99%; in that of `Cc1ncccc1C(=O)NCC1CCN(C[C@H]2COc3ccc(Cl)cc3O2)CC1` [Example 18, (S)-N-{[1-(7-chloro-1,4-benzodioxan-2-ylmethyl)-4-piperidyl]methyl}-2-methylpyridine-3-carboxamide], 89%.

As to `Cc1ccc2c(c1)O[C@@H](CN1CCC(CNC(=O)c3cccnc3N)CC1)CO2` [Example 5, (S)-2-amino-N-{[1-(7-methyl-1,4-benzodioxan-2-ylmethyl)-4-piperidyl]methyl}pyridine-3-carboxamide], the inhibition at 1 µM turned out to be 96%. On the same count and under the same terms, in the case of `Nc1ncccc1C(=O)NCC1CCN(C[C@H]2COc3ccc(Cl)cc3O2)CC1` [Example 1, (S)-(-)-2-amino-N-{[1-(7-chloro-1,4-benzodioxan-2-ylmethyl)-4-piperidyl]methyl}pyridine-3-carboxamide] it was 97%; in that of `O=C(NCC1CCN(C[C@H]2COc3ccc(Cl)cc3O2)CC1)c1cccnc1` [Example 22, (S)-N-{[1-(7-chloro-1,4-benzodioxan-2-ylmethyl)-4-piperidyl]methyl}pyridine-3-carboxamide], 99%. With `Cc1ncccc1C(=O)NCC1CCN(C[C@H]2COc3cccc(Cl)c3O2)CC1` [Example 9, (S)-N-{[1-(8-chloro-1,4-benzodioxan-2-ylmethyl)-4-piperidyl]methyl}-2-methylpyridine-3-carboxamide], the inhibition at 1 µM turned out to be 97%. For `Nc1ncccc1C(=O)NCC1CCN(C[C@H]2COc3ccccc3O2)CC1` [Example 15, (S)-2-amino-N-{[1-(1,4-benzodioxan-2-ylmethyl)-4-piperidyl]methyl}pyridine-3-carboxamide], the inhibition at 1 µM amounted to 99%. Turning to `Nc1ncccc1C(=O)NCC1CCN(C[C@H]2COc3cccc(F)c3O2)CC1` [Example 3, (S)-(-)-2-amino-N-{[1-(8-fluoro-1,4-benzodioxan-2-ylmethyl)-4-piperidyl]methyl}pyridine-3-carboxamide], the inhibition at 1 µM worked out at 99%.

Still in this assay, the particulars now being: rat frontal cortex, tritiated idazoxan 1 nM, 0° C., 75 min.
`Nc1ncccc1C(=O)NCC1CCN(CC2COc3ccc(F)cc3O2)CC1` (stereo not drawn) [Example 10, 2-amino-N-{[1-(7-fluoro-1,4-benzodioxan-2-ylmethyl)-4-piperidyl]methyl}pyridine-3-carboxamide] returned a Ki of 6.4 nM.

`COc1ccc2c(c1)O[C@@H](CN1CCC(CNC(=O)c3cccnc3N)CC1)CO2` [Example 7, (S)-2-amino-N{[1-(7-methoxy-1,4-benzodioxan-2-ylmethyl)-4-piperidyl]methyl}-pyridine-3-carboxamide] returned a Ki of 3.6 nM. Compound `Nc1ccsc1C(=O)NCC1CCN(C[C@H]2COc3ccc(Cl)cc3O2)CC1` [Example 17, (S)-3-amino-N-{[1-(7-chloro-1,4-benzodioxan-2-ylmethyl)-4-piperidyl]methyl}thiophene-2-carboxamide] gave a Ki of 27 nM. On the same count and under the same terms, as for `O=C(NCC1CCN(CC2COc3ccccc3O2)CC1)c1ccccn1` (stereo not drawn) [Example 6, N-{[1-(1,4-benzodioxan-2-ylmethyl)-4-piperidyl]methyl}pyridine-2-carboxamide], the figure is 4.4 nM.

Values taken from patent US5935973A, “Heterocyclcarboxamide derivatives and their use as therapeutic agents” (Knoll Aktiengesellschaft, priority 1995, dated 1999).
